Measured values reported in US5216005A, “Immunosuppressive analogues and derivatives of succinylacetone” (priority 1990, dated 1993).
Read-outs that look alike come from different tables or passages of the source.

Experiments:
[1] = tested on: IFN-γ (human lymphoid cells); experiment: IFN-γ production in primary mixed lymphocyte reaction (WISH cells/EMC virus assay); assay type: cell-based; design: IFN-γ: unit not given here; conditions: for IFN-γ: 1° MLR; for IC50: Homo sapiens, Lymphocyte, primary MLR
Method: Derivatives of succinylacetone were tested for immunosuppressive activity in several different types of assay systems. The first consisted of measuring the amounts of interleukin-2 (IL-2), and interferon-γ (IFN-γ) produced by human lymphoid cells in a mixed lymphocyte reaction. Low levels of these molecules in the reaction mixture indicate that the immune system is being suppressed by the subject succinylacetone derivatives.
IFN-γ was determined by measuring the amount of protection conveyed on human WISH cells against the cytopathic effects of encephalomyocarditis virus (EMC). This assay is described by I. A. Braude, J. of Immunol. Methods 63:237 (1983). Both publications are hereby incorporated by reference.
(§1) The mixed lymphocyte reaction assay can be carried out by techniques well known to those skilled in the art. L. Hudson and F. C. Huy, Practical Immunology, p. 260, Blackwell Scientific Publications (1976). Briefly this consists of isolating lymphocytes from human peripheral blood by standard density gradient centrifugation techniques from two separate individuals. Approximately 2×10^5 lymphocytes of each individual are combined to yield a total of 4×10^5 lymphocytes per culture. All procedures are carried out under sterile conditions, and the lymphocytes are isolated and kept in physiologically compatible solutions. To the mixture of lymphocytes is added a desired amount of an appropriate succinylacetone derivative, and after different times an aliquot of the mixture is removed and assayed for IL-2 or IFN-γ, or ^3 H-T is measured.

[2] = tested on: IL-2 (human lymphoid cells); experiment: IL-2 production in primary mixed lymphocyte reaction (HT-2 cell assay); assay type: cell-based; design: IL-2: unit not given here; conditions: for IL-2: 1° MLR; for IC50: Homo sapiens
Method: as §1, with “Derivatives of succinylacetone were tested for immunosuppressive activity in several different types of assay systems. The first consisted of measuring the amounts of interleukin-2 (IL-2), and interferon-γ (IFN-γ) produced by human lymphoid cells in a mixed lymphocyte reaction. Low levels of these molecules in the reaction mixture indicate that the immune system is being suppressed by the subject succinylacetone derivatives. IL-2 was measured by enumerating the number of viable HT-2 cells found after an 18-24 hours period. HT-2 cells are a mouse IL-2 dependent cell line which die in the absence of IL-2. The assay is described by Gillis et al., J. of Immunol. […] The” for “The”, “260, Blackwell Scientific Publications (1976).” left out, “^[…]” for “^3 H-T”

[3] = viability of peripheral blood lymphocytes with or without PHA, trypan blue exclusion; assay type: cell-based, human; conditions: human, peripheral blood lymphocytes; for viability at 2200 µM: 2.2 mM; for viability at 6700 µM: 6.7 mM; for viability at 20000 µM: 20 mM
Method: Viability was determined using the trypan blue exclusion method well known in the art. […] The assays were conducted in duplicate wherein peripheral blood lymphocytes were isolated from two separate individuals, and then treated with or without phytohemagglutinin in the presence of various concentrations of the appropriate succinylacetone derivative.

## COC(=O)CCC(C(C)=O)C(C)=O [Methyl 4-Acetyl-5-Oxohexanoate, methyl 4-acetyl-5-oxohexanoate]
[1]; Exp I, 3 μM
  IFN-γ: 1260
[1]; Exp I, 9 μM
  IFN-γ: 1260
[1]; Exp I, 27 μM
  IFN-γ: 1260
[1]; Exp I, 81 μM
  IFN-γ: 1313
[1]; Exp I, 244 μM
  IFN-γ: 998
[1]; Exp I, 733 μM
  IFN-γ: 570
[1]; Exp I, 2.2 mM
  IFN-γ: 285
[1]; Exp I, 6.7 mM
  IFN-γ: < 285
[1]; Exp I, 20 mM
  IFN-γ: < 285
[1]; Exp II, 3 μM
  IFN-γ: 1144
[1]; Exp II, 9 μM
  IFN-γ: 1248
[1]; Exp II, 27 μM
  IFN-γ: 1248
[1]; Exp II, 81 μM
  IFN-γ: 1560
[1]; Exp II, 244 μM
  IFN-γ: 1953
[1]; Exp II, 733 μM
  IFN-γ: 1172
[1]; Exp II, 2.2 mM
  IFN-γ: 703
[1]; Exp II, 6.7 mM
  IFN-γ: < 469
[1]; Exp II, 20 mM
  IFN-γ: < 469
[1]; read-out: concentration causing 50% reduction in IFN-γ production
  IC50: ~2200 µM
[2]; Exp I, 3 μM
  IL-2: 29
[2]; Exp I, 9 μM
  IL-2: 46
[2]; Exp I, 27 μM
  IL-2: 30
[2]; Exp I, 81 μM
  IL-2: 42
[2]; Exp I, 244 μM
  IL-2: 17
[2]; Exp I, 733 μM
  IL-2: 17
[2]; Exp I, 2.2 mM
  IL-2: 9
[2]; Exp I, 6.7 mM
  IL-2: < 6
[2]; Exp I, 20 mM
  IL-2: < 6
[2]; Exp II, 3 μM
  IL-2: 70
[2]; Exp II, 9 μM
  IL-2: 85
[2]; Exp II, 27 μM
  IL-2: 52
[2]; Exp II, 81 μM
  IL-2: 70
[2]; Exp II, 244 μM
  IL-2: 52
[2]; Exp II, 733 μM
  IL-2: 70
[2]; Exp II, 2.2 mM
  IL-2: 35
[2]; Exp II, 6.7 mM
  IL-2: < 12
[2]; Exp II, 20 mM
  IL-2: < 12
[2]; HT2, primary MLR, read-out: concentration causing 50% reduction in IL-2 production
  IC50: ~2200 µM
[3]; first individual, (+) PHA
  viability at 3 µM: 100%
  viability at 9 µM: 100%
  viability at 27 µM: 100%
  viability at 81 µM: 100%
  viability at 244 µM: 100%
  viability at 733 µM: 100%
  viability at 2200 µM: 100%
  viability at 6700 µM: 100%
  viability at 20000 µM: 100%
[3]; first individual, (-) PHA
  viability at 3 µM: 100%
  viability at 9 µM: 100%
  viability at 27 µM: 100%
  viability at 81 µM: 100%
  viability at 244 µM: 100%
  viability at 733 µM: 100%
  viability at 2200 µM: 100%
  viability at 6700 µM: 100%
  viability at 20000 µM: 100%
[3]; second individual, (+) PHA
  viability at 3 µM: 100%
  viability at 9 µM: 100%
  viability at 27 µM: 100%
  viability at 81 µM: 100%
  viability at 244 µM: 100%
  viability at 733 µM: 100%
  viability at 2200 µM: 100%
  viability at 6700 µM: 100%
  viability at 20000 µM: 100%
[3]; second individual, (-) PHA
  viability at 3 µM: 100%
  viability at 9 µM: 100%
  viability at 27 µM: 100%
  viability at 81 µM: 100%
  viability at 244 µM: 100%
  viability at 733 µM: 100%
  viability at 2200 µM: 100%
  viability at 6700 µM: 100%
  viability at 20000 µM: 100%

## COC(=O)CCC(=O)CC(C)=O [Succinylacetone Methyl Ester, methyl 4-6-dioxoheptanoate]
[1]; Exp I, 3 μM
  IFN-γ: 2558
[1]; Exp I, 9 μM
  IFN-γ: 1860
[1]; Exp I, 27 μM
  IFN-γ: 2713
[1]; Exp I, 81 μM
  IFN-γ: 1628
[1]; Exp I, 244 μM
  IFN-γ: 1575
[1]; Exp I, 733 μM
  IFN-γ: 1890
[1]; Exp I, 2.2 mM
  IFN-γ: 788
[1]; Exp I, 6.7 mM
  IFN-γ: < 630
[1]; Exp I, 20 mM
  IFN-γ: < 630
[1]; Exp II, 3 μM
  IFN-γ: 1313
[1]; Exp II, 9 μM
  IFN-γ: 1000
[1]; Exp II, 27 μM
  IFN-γ: 1032
[1]; Exp II, 81 μM
  IFN-γ: 1094
[1]; Exp II, 244 μM
  IFN-γ: 938
[1]; Exp II, 733 μM
  IFN-γ: 688
[1]; Exp II, 2.2 mM
  IFN-γ: < 375
[1]; Exp II, 6.7 mM
  IFN-γ: < 375
[1]; Exp II, 20 mM
  IFN-γ: < 375
[1]; read-out: concentration that inhibits IFN-γ production by about 50%
  IC50: ~733 µM
[2]; Exp I, 3 μM
  IL-2: 41
[2]; Exp I, 9 μM
  IL-2: 28
[2]; Exp I, 27 μM
  IL-2: 25
[2]; Exp I, 81 μM
  IL-2: 24
[2]; Exp I, 244 μM
  IL-2: 19
[2]; Exp I, 733 μM
  IL-2: 14
[2]; Exp I, 2.2 mM
  IL-2: < 6
[2]; Exp I, 6.7 mM
  IL-2: < 6
[2]; Exp I, 20 mM
  IL-2: < 6
[2]; Exp II, 3 μM
  IL-2: 34
[2]; Exp II, 9 μM
  IL-2: 38
[2]; Exp II, 27 μM
  IL-2: 34
[2]; Exp II, 81 μM
  IL-2: 28
[2]; Exp II, 244 μM
  IL-2: 28
[2]; Exp II, 733 μM
  IL-2: 23
[2]; Exp II, 2.2 mM
  IL-2: < 8
[2]; Exp II, 6.7 mM
  IL-2: < 8
[2]; Exp II, 20 mM
  IL-2: < 8
[2]; HT2, read-out: concentration that inhibits IL-2 production by about 50%
  IC50: ~733 µM
[3]; between 2.2 mM and 733 μM
  viability: ~100%
[3]; first individual, (+) PHA
  viability at 3 µM: 100%
  viability at 9 µM: 100%
  viability at 27 µM: 97%
  viability at 81 µM: 96%
  viability at 244 µM: 97%
  viability at 733 µM: 90%
  viability at 2200 µM: 89%
  viability at 6700 µM: 8%
  viability at 20000 µM: 0%
[3]; first individual, (-) PHA
  viability at 3 µM: 100%
  viability at 9 µM: 100%
  viability at 27 µM: 100%
  viability at 81 µM: 100%
  viability at 244 µM: 100%
  viability at 733 µM: 96%
  viability at 2200 µM: 94%
  viability at 6700 µM: 7%
  viability at 20000 µM: 0%
[3]; second individual, (+) PHA
  viability at 3 µM: 100%
  viability at 9 µM: 100%
  viability at 27 µM: 94%
  viability at 81 µM: 98%
  viability at 244 µM: 96%
  viability at 733 µM: 94%
  viability at 2200 µM: 93%
  viability at 6700 µM: 6%
  viability at 20000 µM: 0%
[3]; second individual, (-) PHA
  viability at 3 µM: 100%
  viability at 9 µM: 100%
  viability at 27 µM: 100%
  viability at 81 µM: 100%
  viability at 244 µM: 98%
  viability at 733 µM: 95%
  viability at 2200 µM: 94%
  viability at 6700 µM: 4%
  viability at 20000 µM: 0%
